Experimental findings from US20230399312A1, “SUBSTITUTED PYRIMIDINES AND METHODS OF USE” (THERAVANCE BIOPHARMA R&D IP, LLC, priority 2020, published 2023) are described below.

Some results are limits rather than exact numbers.

The target in assay [1] is T1, recombinant human ALK5 (TGF-βR1) protein (Homo sapiens, UniProt P36897).
T1 construct: purchased Life Technologies PR9075A
T1 sequence (P36897 34-503): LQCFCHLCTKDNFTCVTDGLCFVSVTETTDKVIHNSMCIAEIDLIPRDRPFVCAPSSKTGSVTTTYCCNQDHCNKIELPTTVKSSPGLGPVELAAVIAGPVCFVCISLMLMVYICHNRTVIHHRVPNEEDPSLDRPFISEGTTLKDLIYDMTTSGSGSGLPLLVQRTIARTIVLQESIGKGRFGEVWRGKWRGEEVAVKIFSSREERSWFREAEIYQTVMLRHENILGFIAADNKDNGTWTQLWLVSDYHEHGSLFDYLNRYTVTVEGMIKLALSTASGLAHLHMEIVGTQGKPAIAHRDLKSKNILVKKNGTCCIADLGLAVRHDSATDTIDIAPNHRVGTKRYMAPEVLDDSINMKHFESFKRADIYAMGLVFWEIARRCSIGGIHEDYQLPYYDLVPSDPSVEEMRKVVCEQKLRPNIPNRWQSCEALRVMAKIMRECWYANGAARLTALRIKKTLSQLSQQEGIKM
Description: Biochemical ALK5 (TGF-βR1) assay to measure pKi (LANCE Ultra ULight kinase assay). The conditions noted are these: apparent pKi, converted from pIC50 by Cheng-Prusoff. A digest of the protocol:
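Enzyme was preincubated with compound for 60 min at room temperature, then ATP (added from a 125 μM 5× stock with 2 mM DTT) started a 60 min reaction at 37 °C. EDTA plus Eu-anti-phospho-Topo2α (Thr1342) antibody stopped it; TR-FRET pIC50 values were converted to pKi by Cheng-Prusoff.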
On the technique in general: Time-resolved FRET reads energy transfer from a long-lived donor to a nearby acceptor.

Assay [2] relates to TGF-β-stimulated SMAD3 phosphorylation in BEAS-2B cells. The assay can be described thus: Cellular ALK5 potency assay, inhibition of TGF-β stimulated pSMAD3 formation in BEAS-2B cells. It counts as cell-based. Particulars: Homo sapiens, pSMAD3, TGF-β 10 ng/mL, read-out: BEAS2B pIC50 (converted). The procedure, abridged: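 Human lung epithelial BEAS-2B cells were pre-treated with compound for 1 h at 37 °C, then stimulated with TGF-β (final 10 ng/mL) for 30 min before lysis. pSMAD3 was quantified by AlphaLISA and pIC50 derived from dose-dependent signal change versus TGF-β-stimulated untreated cells.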

With `Cc1cccc(-c2nccc(Nc3ccnc(Nc4ccc(NC(=O)C5CCNCC5)c(Cl)c4)n3)n2)n1` [Compound 158, N-[2-chloro-4-[[4-[[2-(6-methyl-2-pyridyl)pyrimidin-4-yl]amino]pyrimidin-2-yl]amino]phenyl]piperidine-4-carboxamide], in assay [1], the Ki is 0.0398 to 0.316 nM. Moreover, the IC50 in assay [2] is 25.1 to 158 nM.

Regarding `Cc1cccc(-c2nccc(Nc3ccnc(Nc4ccc(N5CCNCC5CC(=O)OC5CNC5)cc4)n3)n2)n1` (stereo not shown) [Compound 159, azetidin-3-yl 2-[1-[4-[[4-[[2-(6-methyl-2-pyridyl)pyrimidin-4-yl]amino]pyrimidin-2-yl]amino]phenyl]piperazin-2-yl]acetate], the Ki in assay [1] is 0.0398 to 0.316 nM. Moreover, the IC50 in assay [2] is 200 to 1260 nM.

Regarding `Cc1cccc(-c2nccc(Nc3ccnc(Nc4ccc5c(c4)CCNCC5)n3)n2)n1` [Compound 160, N4-[2-(6-methyl-2-pyridyl)pyrimidin-4-yl]-N2-(2,3,4,5-tetrahydro-1H-3-benzazepin-7-yl)pyrimidine-2,4-diamine], the Ki in assay [1] was 0.0398 to 0.316 nM. In assay [2], the IC50 is 25.1 to 158 nM.

Regarding `Cc1cccc(-c2nccc(Nc3ccnc(Nc4ccc(CN5CCC(C(=O)O[C@H]6CCN(C)C6)C5)cc4)n3)n2)n1` (stereo partly drawn) [Compound 161, [(3S)-1-methylpyrrolidin-3-yl] 1-[[4-[[4-[[2-(6-methyl-2-pyridyl)pyrimidin-4-yl]amino]pyrimidin-2-yl]amino]phenyl]methyl] pyrrolidine-3-carboxylate], the Ki in assay [1] was 0.0398 to 0.316 nM. Moreover, the IC50 in assay [2] is at most 20 nM.

For the molecule `Cc1cccc(-c2nccc(Nc3ccnc(Nc4ccc(NS(=O)(=O)c5ccc(C(N)=O)cc5)cc4)n3)n2)n1` [Compound 162, 4-[[4-[[4-[[2-(6-methyl-2-pyridyl)pyrimidin-4-yl]amino]pyrimidin-2-yl]amino]phenyl]sulfamoyl] benzamide], the Ki in assay [1] was 0.398 to 3.16 nM. Further, in assay [2], the IC50 was 200 to 1260 nM.

Regarding `Cc1cccc(-c2nccc(Nc3ccnc(Nc4ccc(CN5CC6(CNC6)C5)cc4)n3)n2)n1` [Compound 163, N2-[4-(2,6-diazaspiro[3.3]heptan-2-ylmethyl)phenyl]-N4-[2-(6-methyl-2-pyridyl)pyrimidin-4-yl]pyrimidine-2,4-diamine], the Ki in assay [1] was 0.0398 to 0.316 nM. Also, the IC50 in assay [2] was 25.1 to 158 nM.

Consider `Cc1cccc(-c2nccc(Nc3ccnc(Nc4cccc(NC(=O)C5(CO)CNC5)c4)n3)n2)n1` [Compound 164, 3-(hydroxymethyl)-N-[3-[[4-[[2-(6-methyl-2-pyridyl)pyrimidin-4-yl]amino]pyrimidin-2-yl]amino]phenyl]azetidine-3-carboxamide], for which the Ki in assay [1] was 0.0398 to 0.316 nM. Also, the IC50 in assay [2] is 25.1 to 158 nM.

Consider `Fc1ccc(Cl)cc1-c1nccc(Nc2ccnc(Nc3ccc(CN4CCOCC4)cc3)n2)n1` [Compound 165, N4-[2-(5-chloro-2-fluoro-phenyl)pyrimidin-4-yl]-N2-[4-(morpholinomethyl)phenyl] pyrimidine-2,4-diamine], for which the Ki in assay [1] is 3.98 to 31.6 nM. In assay [2], the IC50 is 25.1 to 158 nM.

Consider `Cc1ccc(O)cc1-c1nccc(Nc2ccnc(Nc3ccc(N4CCOCC4)cc3)n2)n1` [Compound 166, 4-methyl-3-[4-[[2-(4-morpholinoanilino)pyrimidin-4-yl]amino]pyrimidin-2-yl]phenol], for which, in assay [1], the Ki is 3.98 to 31.6 nM. For the same molecule, the IC50 in assay [2] is 25.1 to 158 nM.

On to `Cc1cccc(-c2nccc(Nc3ccnc(Nc4ccc(CN5CC(C(=O)OC6CNC6)C5)cc4)n3)n2)n1` [Compound 167, azetidin-3-yl 1-[[4-[[4-[[2-(6-methyl-2-pyridyl)pyrimidin-4-yl]amino]pyrimidin-2-yl]amino]phenyl]methyl] azetidine-3-carboxylate], for which the Ki in assay [1] is 0.0398 to 0.316 nM. For the same molecule, the IC50 in assay [2] was 25.1 to 158 nM.

In the case of `Cc1cccc(-c2nccc(Nc3ccnc(Nc4cccc(NC(=O)NC5CCNC5)c4)n3)n2)n1` (stereo not shown) [Compound 168, 1-[3-[[4-[[2-(6-methyl-2-pyridyl)pyrimidin-4-yl]amino]pyrimidin-2-yl]amino]phenyl]-3-pyrrolidin-3-yl-urea], the Ki in assay [1] is 0.0398 to 0.316 nM. For the same molecule, in assay [2], the IC50 is 25.1 to 158 nM.
